{
  "source": "patent US20200377568A1",
  "about": "“Novel IL-4-/IL-13-derived peptide compounds for the treatment or prevention of neurodegenerative or neuroinflammatory diseases” (Universitätsmedizin der Johannes Gutenberg-Universität Mainz, priority 2018, published 2020)",
  "key": {"[1]": {"tested_on": "CD4+ T cells", "assay": "TH2 differentiation of naive T cells", "assay_type": "cell-based, mouse", "conditions": "different concentrations, FIG. 4B", "experimental": "(§1) A-B: Effects of incubation with IL-4 and different concentrations of Link4 and Link13 on the differentiation of A: CD11b^+ bone marrow-derived macrophages (BMDMs) into F80^+CD206^+ cells, and B: CD4^+ T cells into Gata3^+ cells. C-D: FACS results for different populations of T cells and CD11b^+MHCII^+ monocytes/macrophages/microglia of immune cells isolated from C: spleen and D: central nervous system (CNS) of EAE mice treated with PBS, IL-4 or Link4.\nIn order to investigate whether Link4 and Link13 are able to modulate immune cells, in vitro assays were performed on bone marrow-derived macrophages (BDMBs) and on naïve T cells.\nFor the isolation of T lymphocytes 5-8 week old C57BL/6 mice were sacrificed by cervical dislocation and the spleens and lymph nodes (LN) were isolated and rubbed trough a 100 μm cell strainer into a 50 ml tube with washing medium (5% FCS, 1% P/S,1% HEPES in PBS). After washing, the cells were centrifuged for 5 min at 550 g at 4° C. To remove the red blood cells the […] was re-suspended in lysis buffer followed by centrifugation (5 min, 550 g, 4° C.). The cells were resuspended in MACS buffer and magnetic lymphocyte sorting was performed on ice, using the MidiMACS and QuadroMACS Seperators. A CD4 untouched and CD8 touched cell sort was performed a washing step in ml MACS buffer (5 min, 550 g, 4° C.). Cells were incubated with CD4 T cell biotin antibody cocktail (Miltenyi Biotec) in MACS buffer for 5 min at 4° C. Subsequently, anti-biotin microbeads and CD8 microbeads in MACS buffer was added. CD8 microbeads were added to reduce the possible contamination of CD8^+ lymphocytes. After 10 min of incubation at 4° C. the cells were washed again and resuspended in MACS buffer. MACS columns were pre equilibrated and topped with pre-separation filters (30 μm). A maximum of 300×10^6 cells were added to each column followed by 3 consecutive washing steps with MACS buffer. […] The purity of the magnetic cells sorts was assessed by comparing pre- and post-sort samples by flow cytometry. […]"}, "[2]": {"tested_on": "immune cells isolated from spleen", "assay": "FACS of immune cells from spleen of EAE mice after nasal treatment", "assay_type": "in vivo, mouse", "conditions": "intranasal treatment of EAE mice", "experimental": "as §1\n(§2) Subsequently, the effects of IL-4 and Link4 on immune cells were analysed when applied intranasally, similarly as in FIG. 3B. Since nasally applied treatments can enter the periphery (lungs, blood stream) it was of utmost importance to check whether the substances affected the lymphocyte populations in the spleen. A reduction was found of CD8^+ cytotoxic T-cells for Link4, whereas all CD4^+ T helper cell types were unchanged. The CD11 b+MHCII+ population of monocytes/macrophages was also not changed.\nCNS and spleens were removed from EAE mice treated with nasal IL-4, Link4 or PBS at d35 and immune cells were isolated as previously described (M. Paterka, J. O. Voss, J. Werr, E. Reuter, S. Franck, T. Leuenberger, J. Herz, H. Radbruch, T. Bopp, V. Siffrin, and F. Zipp, Dendritic cells tip the balance towards induction of regulatory T cells upon priming in experimental autoimmune encephalomyelitis. J Autoimmun 67, 108-114 (2017)). For in vitro stimulation of T cells, anti-CD3 (145-2C11) and anti-CD28 (37.51) were used. The following antibodies were used for flow cytometry with the BD FACSCanto II (BD Bioscience): anti-CD4 PEcγ7 (RM4-5), anti-CD8 FITC (53-6.7), anti-CD3APC (145-2c11), anti-CD11 b bio (M1/70), anti-MHCII PE (AF6-120.1), anti-CD11 b V450 (HL311B), anti-CD45 AF605 (30-F11), anti-GM-CSF PE (MP1-22E9), anti-IL17 APC (eBio17B7), anti-TNFα AF700 (MP6-XT22), anti-IFN-γV450 (XMG1.2), anti-GATA-3 PE (TWAZ), anti-FOXP3 PEcy7(FZK-16s), anti-IL-10 APC (JESS-16E3), anti-CD4 V450 (RM4-5). All antibodies were purchased from eBioscience or Biolegend."}, "[3]": {"tested_on": "immune cells isolated from central nervous system (CNS)", "assay": "FACS of immune cells from CNS of EAE mice after nasal treatment", "assay_type": "in vivo, mouse", "conditions": "CNS (brain and spinal cord), intranasal treatment of EAE mice", "experimental": "as §1, §2\nCNS and spleens were removed from EAE mice treated with nasal IL-4, Link4 or PBS at d35 and immune cells were isolated as previously described (M. Paterka, J. O. Voss, J. Werr, E. Reuter, S. Franck, T. Leuenberger, J. Herz, H. Radbruch, T. Bopp, V. Siffrin, and F. Zipp, Dendritic cells tip the balance towards induction of regulatory T cells upon priming in experimental autoimmune encephalomyelitis. J Autoimmun 67, 108-114 (2017)). […]"}, "[4]": {"tested_on": "hippocampal cell line HT22", "assay": "CellTiter-blue cell viability assay (ctb), hippocampal cell line", "assay_type": "cell-based", "conditions": "HT22 cells, increasing concentrations, FIG. 2B", "experimental": "Toxicity was checked by subjecting mouse embryonic fibroblasts (Mef) and the hippocampal cell line HT22 to a CellTiter-blue cell viability assay (ctb).\nMouse embryonic fibroblasts (Mef) (Sigma-Aldrich) and hippocampal HT22 (ThermoScientific) cells were cultured according to the manufacturer's protocols. Ctb assays were performed according to the manufacturer's protocols (Promega)."}},
  "data": [
    {"sequence": "RARSEIIGIGSKSIMQMDY (listed as Mus musculus) [Link4]", "values": [
      {"measurement": "differentiation of CD4+ T cells into Gata3+ cells", "setting": "[1]", "value": "did not take place"},
      {"measurement": "CD4+ T helper cell types", "setting": "[2]", "value": "unchanged"},
      {"measurement": "CD8+ cytotoxic T-cells", "setting": "[2]", "value": "reduction"},
      {"measurement": "CD11b+MHCII+ population of monocytes/macrophages", "setting": "[2]", "value": "not changed"},
      {"measurement": "IL-10+ cells", "setting": "[3]", "value": "significant rise"},
      {"measurement": "toxic effects on hippocampal neurons (cell viability)", "setting": "[4]", "value": "no toxic effects"}
    ]}
  ]
}
